Measurements from patent US10927141B2 (priority 2018, dated 2021).
Read-outs that look alike come from different tables or passages of the source.

Key:
[1] = Bulk density for salts of Compound 1; type: physicochemical; conditions: Form A
[2] = Dynamic vapor sorption (DVS), gravimetric moisture sorption; type: physicochemical; conditions: at 80% Relative Humidity, 25° C.
Method: Dynamic Vapor Sorption (DVS) were collected conducted using an SMS DVS Advantage 1 system. For each sample analyzed approximately 10 mg of material was transferred into the DVS instrument and recorded the weight change with respect to the atmospheric humidity at 25° C. using the following parameters: Equilibrium dm/dt: 0.01%/min, (for min: 10 min and max: 180 min); drying setting were 0% RH for 120 min; RH (%) measurement step at 10% and RH (%) measurement step scope of 0-90-0%.

[3] = type: physicochemical; conditions: 1 w
Method: For each salt, approximately 5 mg compound was added into an 8 mL glass vial with a multi-hole aluminum foil cap, and kept at 60° C., 40° C./75% RH for 1 week. […] Appearance by visual observation were recorded followed by purity assessment and XPRD data collection on the residual solids.

[4] = type: physicochemical
[5] = type: physicochemical; conditions: for Final pH: 37° C., 24 h
[6] = 40° C./75% RH, listed as Hydrobromide (Form A)
[7] = 60° C., listed as Hydrobromide (Form A)
[8] = 1.2 million lux-hrs, listed as Hydrobromide (Form A)
[9] = Dark control, listed as Hydrobromide (Form A)
[10] = 40° C./75% RH, listed as Hydrobromide (Form C)
[11] = 60° C., listed as Hydrobromide (Form C)
[12] = 1.2 million lux-hrs, listed as Hydrobromide (Form C)
[13] = Dark control, listed as Hydrobromide (Form C)

## O=C(O)CC(O)(CC(=O)O)C(=O)O [Citrate]
[1]
  Bulk Density: 0.49 g/mL
  Tapped Density: 0.70 g/mL

## COC[C@@]1(O)CC[C@@]2(C)[C@@H](CC[C@@H]3[C@@H]2CC[C@]2(C)[C@@H](C(=O)Cn4ccnc4)CC[C@@H]32)C1.O=C(O)CC(O)(CC(=O)O)C(=O)O [Compound 1 Citrate (Form A)]
[2]
  gravimetric moisture sorption: about 3.6 % (by weight)
[3]; 40° C./75% RH
  Final purity: 99.4
  XRPD pattern: Form A
[3]; 60° C.
  Final purity: 99.5
  XRPD pattern: Form A
[4]; 1.2 million lux-hrs
  Final purity: 99.5
  XRPD pattern: Form A
[4]; Dark control
  Final purity: 99.5
  XRPD pattern: Form A

## COC[C@@]1(O)CC[C@@]2(C)[C@@H](CC[C@@H]3[C@@H]2CC[C@]2(C)[C@@H](C(=O)Cn4ccnc4)CC[C@@H]32)C1.O=C(O)CC(O)(CC(=O)O)C(=O)O [Compound 1 Citrate (Form B)]
[2]
  gravimetric moisture sorption: about 2.8 % (by weight)
[3]; 40° C./75% RH
  Final purity: 98.3
  XRPD pattern: Form B
[3]; 60° C.
  Final purity: 97.7
  XRPD pattern: Form B
[4]; 1.2 million lux-hrs
  Final purity: 99.3
  XRPD pattern: Form B
[4]; Dark control
  Final purity: 99.1
  XRPD pattern: Form B

## Br.COC[C@@]1(O)CC[C@@]2(C)[C@@H](CC[C@@H]3[C@@H]2CC[C@]2(C)[C@@H](C(=O)Cn4ccnc4)CC[C@@H]32)C1 [Compound 1 HBr (Form A)]
[5]; FaSSIF (original pH = 6.51), listed as Hydrobromide (Form A)
  Final pH: 4.11
[5]; FeSSIF (original pH = 4.99), listed as Hydrobromide (Form A)
  Final pH: 5.01
[5]; SGF (original pH = 1.82)
  Final pH: 1.91
[2]
  gravimetric moisture sorption: about 1.1 % (by weight)
[3]; [6]
  Final purity: 98.2
  XRPD pattern: Form A
[3]; [7]
  Final purity: 98.0
  XRPD pattern: Form A
[4]; [8]
  Final purity: 98.2
  XRPD pattern: Form A
[4]; [9]
  Final purity: 97.9
  XRPD pattern: Form A

## Br.COCC1(O)CCC2(C)C(CCC3C2CCC2(C)C(C(=O)Cn4ccnc4)CCC32)C1 (stereo not shown) [Compound 1 HBr (Form B)]
[5]; FaSSIF (original pH = 6.51)
  Final pH: 5.51
[5]; FeSSIF (original pH = 4.99)
  Final pH: 4.89
[5]; SGF (original pH = 1.82)
  Final pH: 1.89
[2]
  gravimetric moisture sorption: about 0.2 % (by weight)
[3]; 40° C./75% RH
  Final purity: 98.9
  XRPD pattern: Form B
[3]; 60° C.
  Final purity: 98.8
  XRPD pattern: Form B
[4]; 1.2 million lux-hrs
  Final purity: 98.4
  XRPD pattern: Form B
[4]; Dark control
  Final purity: 97.8
  XRPD pattern: Form B

## Br.COC[C@@]1(O)CC[C@@]2(C)[C@@H](CC[C@@H]3[C@@H]2CC[C@]2(C)[C@@H](C(=O)Cn4ccnc4)CC[C@@H]32)C1 [Compound 1 HBr (Form C)]
[5]; FaSSIF (original pH = 6.51), listed as Hydrobromide (Form C)
  Final pH: 4.90
[5]; FeSSIF (original pH = 4.99), listed as Hydrobromide (Form C)
  Final pH: 5.05
[5]; SGF (original pH = 1.82), listed as Hydrobromide (Form C)
  Final pH: 1.99
[2]
  gravimetric moisture sorption: about 0.25 % (by weight)
[3]; [10]
  Final purity: 98.4
  XRPD pattern: Form C + B
[3]; [11]
  Final purity: 98.1
  XRPD pattern: Form C + B
[4]; [12]
  Final purity: 98.1
  XRPD pattern: Form C + B
[4]; [13]
  Final purity: 98.0
  XRPD pattern: Form C + B

## COC[C@@]1(O)CC[C@@]2(C)[C@@H](CC[C@@H]3[C@@H]2CC[C@]2(C)[C@@H](C(=O)Cn4ccnc4)CC[C@@H]32)C1.O=S(=O)(O)O [Compound 1 Sulfate (Form A)]
[2]
  gravimetric moisture sorption: about 6.2 % (by weight)

## COCC1(O)CCC2(C)C(CCC3C2CCC2(C)C(C(=O)Cn4ccnc4)CCC32)C1.Cc1ccc(S(=O)(=O)O)cc1 (stereo not shown) [Compound 1 Tosylate (Form A)]
[2]
  gravimetric moisture sorption: about 1.5 % (by weight)

## Br.COC[C@@]1(O)CC[C@@]2(C)[C@@H](CC[C@@H]3[C@@H]2CC[C@]2(C)[C@@H](C(=O)Cn4ccnc4)CC[C@@H]32)C1 [HBr]
[1]
  Bulk Density: 0.27 g/mL
  Tapped Density: 0.50 g/mL

## COCC1(O)CCC2(C)C(CCC3C2CCC2(C)C(C(=O)Cn4ccnc4)CCC32)C1.O=P(O)(O)O (stereo not shown) [Phosphate]
[1]
  Bulk Density: 0.15 g/mL
  Tapped Density: 0.33 g/mL

## O=C(O)C(O)C(O)C(=O)O (stereo not shown) [Tartrate]
[1]
  Bulk Density: 0.13 g/mL
  Tapped Density: 0.32 g/mL

## COCC1(O)CCC2(C)C(CCC3C2CCC2(C)C(C(=O)Cn4ccnc4)CCC32)C1.Nc1ccc(C(=O)O)c(O)c1 (stereo not shown) [p-Aminosalicylate (Form A)]
[5]; FaSSIF (original pH = 6.51), after solubility test
  Final pH (FaSSIF): 5.12
[5]; FeSSIF (original pH = 4.99), after solubility test
  Final pH (FeSSIF): 5.06
[5]; SGF (original pH = 1.82), after solubility test
  Final pH (SGF): 3.73
